Measured values as given in the SangsterLogP compilation.

| SMILES | logP |
| --- | --- |
| CCCCC(CC)C(=O)N1c2ccc(C)cc2C2CN(C)CCC21 (stereo not given) | 4.14 |
| CC(=O)N1c2ccc(C)cc2[C@H]2CN(C)CC[C@H]21 (relative stereo) | 1.25 |
| CCCCCCC(=O)N1c2ccc(C)cc2[C@H]2CN(C)CC[C@H]21 (relative stereo) | 3.57 |
| CCCCCCCCC(=O)N1c2ccc(C)cc2[C@H]2CN(C)CC[C@H]21 (relative stereo) | 4.41 |
| CCCCCCCCCC(=O)N1c2ccc(C)cc2[C@H]2CN(C)CC[C@H]21 (relative stereo) | 4.83 |
| CCCCCCCCCCCC(=O)N1c2ccc(C)cc2[C@H]2CN(C)CC[C@H]21 (relative stereo) | 5.66 |
| CCCCCCCCCCCCCC(=O)N1c2ccc(C)cc2[C@H]2CN(C)CC[C@H]21 (relative stereo) | 6.7 |
| CCCCCCCCCCCCCCCC(=O)N1c2ccc(C)cc2[C@H]2CN(C)CC[C@H]21 (relative stereo) | 7.33 |
| Cc1ccc2c(c1)[C@H]1CN(C)CC[C@H]1N2 (relative stereo) | 1.6 |
| Cc1ccc2c(c1)[C@H]1CN(C)CC[C@H]1N2C(=O)C=Cc1ccccc1 (relative stereo) | 3.49 |
